The term IC50 denotes the concentration at which inhibition is half-maximal.

Assay [1] deals with T1, Human CD73 (amino acid residues 27-549) (Homo sapiens, UniProt P21589).
T1 construct: Human CD73 (amino acid residues 27-549); His tag (N); made in house; host or cells: E. coli
T1 sequence (P21589 27-549): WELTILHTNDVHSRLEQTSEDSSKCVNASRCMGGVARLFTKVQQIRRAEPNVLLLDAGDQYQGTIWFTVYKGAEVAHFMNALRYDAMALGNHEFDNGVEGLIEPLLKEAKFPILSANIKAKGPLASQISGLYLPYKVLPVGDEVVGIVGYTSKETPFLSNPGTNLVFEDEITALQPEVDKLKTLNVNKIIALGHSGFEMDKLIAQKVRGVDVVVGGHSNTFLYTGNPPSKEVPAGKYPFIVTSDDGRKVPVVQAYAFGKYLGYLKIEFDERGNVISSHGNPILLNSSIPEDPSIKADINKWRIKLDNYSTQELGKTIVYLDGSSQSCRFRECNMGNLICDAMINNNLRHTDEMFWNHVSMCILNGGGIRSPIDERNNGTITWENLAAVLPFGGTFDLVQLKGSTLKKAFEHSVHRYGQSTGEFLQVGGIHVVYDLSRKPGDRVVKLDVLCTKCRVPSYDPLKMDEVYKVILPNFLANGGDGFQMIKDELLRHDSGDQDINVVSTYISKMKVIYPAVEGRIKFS
The assay is described as follows: CD73 enzymatic assay (luciferase-based indirect assay, CellTiter-Glo). It is filed as biochemical. The note with it: 0.4 nM CD73, 150 μM AMP, 1 hour at room temperature. A digest of the protocol: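 Residual AMP inhibits luciferase, so luminescence reports CD73 turnover; read with CellTiter-Glo 2.0 plus 1 μM final ATP, 30 min. Reaction used 0.4 nM N-His CD73 (27-549, E. coli), 150 μM AMP, HEPES pH 7.4 with Tween 20, 1 h at room temperature. IC50 fitted by nonlinear regression.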
On the technique in general: In ATP-based viability assays light output follows the ATP content of the culture.

For the next assay, the target named is T2, human CD73 (Homo sapiens, UniProt P21589).
T2 construct: expressed in transfected cells
T2 sequence (P21589 27-549): T1 sequence (P21589 27-549)
The assay is described as follows: Inhibitor activity against CD73 in cell based assay (CD73 expressing CHO-K1 cells). As to conditions: CHO-K1 cells expressing human CD73, 150 μM AMP, 4 hours of incubation; read-out: CHO-K1 CELL VARIANT: CD73 IC50. A digest of the protocol:
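Residual supernatant AMP was quantified via CellTiter-Glo luminescence (1 μM ATP added, 30 min, room temperature) after a 4 h exposure of human CD73-expressing CHO-K1 cells to 150 μM AMP plus compound, top final 10 μM, 8 points. IC50 came from nonlinear regression of percent inhibition.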

Turning to `O=C(NC1(C(F)(F)F)CC1)O[C@@H]1CCN(c2cn[nH]c(=O)c2Cl)C1` [P-0134, (R)-1-(5-chloro-6-oxo-1,6-dihydropyridazin-4-yl)pyrrolidin-3-yl (1-(trifluoromethyl)cyclopropyl) carbamate], the IC50 (in assay [1]; on human CD73) was 0.001 to 10 µM each time.
On to `O=C(N[C@@H]1CCN(c2cn[nH]c(=O)c2Cl)C1)O[C@@H]1CCN(c2cn[nH]c(=O)c2Cl)C1` [P-0135, (R)-1-(5-chloro-6-oxo-1,6-dihydropyridazin-4-yl)pyrrolidin-3-yl ((R)-1-(5-chloro-6-oxo-1,6-dihydropyridazin-4-yl)pyrrolidin-3-yl)carbamate], for which the IC50 (in assay [1]; at human CD73) was 0.001 to 10 µM in each case.
Turning to `O=C(N[C@H]1CCN(c2cn[nH]c(=O)c2Cl)C1)O[C@@H]1CCN(c2cn[nH]c(=O)c2Cl)C1` [P-0136, (R)-1-(5-chloro-6-oxo-1,6-dihydropyridazin-4-yl)pyrrolidin-3-yl ((S)-1-(5-chloro-6-oxo-1,6-dihydropyridazin-4-yl)pyrrolidin-3-yl)carbamate], the IC50 (in assay [1]; on human CD73) was 0.001 to 10 µM in each case.
Take `Cn1cc(C2(NC(=O)O[C@@H]3CCN(c4cn[nH]c(=O)c4Cl)C3)CC2)cn1` [P-0137, (R)-1-(5-chloro-6-oxo-1,6-dihydropyridazin-4-yl)pyrrolidin-3-yl (1-(1-methyl-1H-pyrazol-4-yl)cyclopropyl)carbamate]: the IC50 (in assay [1]; on human CD73) was 0.001 to 10 µM in each case.
For the compound `CC1(OC(=O)NC2CCC(F)(F)CC2)CCN(c2cn[nH]c(=O)c2Cl)C1` (stereo not shown) [P-0138, 1-(5-chloro-6-oxo-1,6-dihydropyridazin-4-yl)-3-methylpyrrolidin-3-yl (4,4-difluorocyclohexyl)carbamate], the IC50 (in assay [1]; at human CD73) was 0.001 to 10 µM in each case.
Take `C[C@H]1CN(c2cn[nH]c(=O)c2Cl)C[C@@H]1OC(=O)NC1CCC(F)(F)CC1` [P-0139, (3R,4S)-1-(5-chloro-6-oxo-1,6-dihydropyridazin-4-yl)-4-methylpyrrolidin-3-yl (4,4-difluorocyclohexyl)carbamate]: the IC50 (in assay [1]; at human CD73) was 0.001 to 10 µM each time.
Consider `C[C@@H]1CN(c2cn[nH]c(=O)c2Cl)C[C@@H]1OC(=O)NC1CCC(F)(F)CC1` [P-0140, (3R,4R)-1-(5-chloro-6-oxo-1,6-dihydropyridazin-4-yl)-4-methylpyrrolidin-3-yl (4,4-difluorocyclohexyl)carbamate], for which the 50% inhibitory concentration (IC50) in assay [1] fell in the range of 0.001 to 10 µM; at human CD73, 10 to 100 µM.
Taken in the same sequence, the figures for `O=C(NC1CCC(F)(F)CC1)O[C@@H]1CN(c2cn[nH]c(=O)c2Cl)C[C@H]1F` [P-0141, (3R,4R)-1-(5-chloro-6-oxo-1,6-dihydropyridazin-4-yl)-4-fluoropyrrolidin-3-yl (4,4-difluorocyclohexyl)carbamate] were 0.001 to 10 µM and 0.001 to 10 µM.
Turning to `CCCS(=O)(=O)N[C@H]1CC[C@H](NC(=O)O[C@@H]2CCN(c3cn[nH]c(=O)c3Cl)C2)CC1` [P-0142, (R)-1-(5-chloro-6-oxo-1,6-dihydropyridazin-4-yl)pyrrolidin-3-yl ((1r,4R)-4-(propylsulfonamido)cyclohexyl)carbamate], the IC50 (in assay [1]; on human CD73) was 0.001 to 10 µM throughout.
`O=C(NC1CCC(C(F)(F)F)CC1)O[C@@H]1CCN(c2cn[nH]c(=O)c2Cl)C1` (stereo partly drawn) [P-0143, (R)-1-(5-chloro-6-oxo-1,6-dihydropyridazin-4-yl)pyrrolidin-3-yl (4-(trifluoromethyl)cyclohexyl) carbamate]: the IC50 (in assay [1]; at human CD73) was 0.001 to 10 µM throughout.
On to `CS(=O)(=O)N[C@H]1CC[C@H](NC(=O)O[C@@H]2CCN(c3cn[nH]c(=O)c3C#N)C2)CC1` [P-0144, (R)-1-(5-cyano-6-oxo-1,6-dihydropyridazin-4-yl)pyrrolidin-3-yl ((1r,4R)-4-(methylsulfonamido)cyclohexyl)carbamate], for which the IC50 (in assay [1]; at human CD73) was 0.001 to 10 µM throughout.

The record behind these values is patent publication US12509444B2, “Compounds and methods for CD73 modulation and indications therefor” (Plexxikon Inc., priority 2019, dated 2025).
